This note sets out measurements from article PMC9767876, “Development of a robust and convenient dual-reporter high-throughput screening assay for SARS-CoV-2 antiviral drug discovery” (Antiviral Research, 2023).

Read-outs that look alike come from different tables or passages of the source.

In data set [1] the test system is SARS-CoV-2_mNeonGreen virus (Wuhan strain). As to the kind of experiment: microbe, parasite or virus in culture. Format: cell-based. Particulars: for EC50: read-out: EC50 Mean ± SD (antiviral activity).
A short description of another data set: in vitro. Particulars: human.
The test system of data set [2] is A549+hACE2+hTMPRSS2_mCherry cells.
[3] abbreviates: Severe acute respiratory syndrome coronavirus 2.

For the molecule `Cn1cnc(Cn2c(=O)[nH]/c(=N\c3cc4cn(C)nc4cc3Cl)n(Cc3cc(F)c(F)cc3F)c2=O)n1` [Ensitrelvir], the EC50 in data set [1] (setting [3]) was 260 ± 43 nM. This molecule also registered a CC50 in the data set “in vitro” above 50000 nM.

Consider `CCn1c(CO)nn(-c2cc(O[C@@H](C)C(F)(F)F)c(C(=O)Nc3c(F)cccc3Cl)cc2F)c1=O` [BAY-2402234], for which the EC50 in data set [1] is 5 ± 1 nM.

On to `C/C=C/C[C@@H](C)[C@@H](O)[C@H]1C(=O)N[C@@H](CC)C(=O)N(C)[C@H](C)C(=O)N(CC)[C@@H](C(C)C)C(=O)N[C@@H](C(C)C)C(=O)N(C)[C@@H](CC(C)C)C(=O)N[C@@H](C)C(=O)N[C@H](C)C(=O)N(C)[C@@H](CC(C)C)C(=O)N(C)[C@@H](CC(C)C)C(=O)N(C)[C@@H](C(C)C)C(=O)N1C` [Alisporivir], for which the concentration for a half-maximal effect (EC50) in data set [1] (setting [3]) came to 1460 ± 130 nM. The CC50 in the data set “in vitro” was 23800 ± 4750 nM.

For the molecule `N#C[C@@]1(c2ccc3c(N)ncnn23)O[C@H](CO)[C@@H](O)[C@H]1O` [GS-441524], the “selectivity index (SI)” value in data set [1] is above 30. Further, in data set [1] (setting [3]), the EC50 was 1660 ± 420 nM. In addition, the CC50 in “in vitro” was above 50000 nM.

With `CN(C)C(=O)COC(=O)Cc1ccc(OC(=O)c2ccc(NC(=N)N)cc2)cc1` [Camostat], the EC50 in data set [1] (setting [3]) was above 50000 nM. The CC50 in the data set “in vitro” is above 50000 nM.

On to `COc1cccc2[nH]c(C(=O)N[C@@H](CC(C)C)C(=O)N[C@@H](C[C@@H]3CCNC3=O)C(=O)CO)cc12` [PF-00835231], for which the CC50 in data set [2] was above 50000 nM. For the same molecule, in data set [1], the “selectivity index (SI)” value is above 115 and the EC50 worked out at 430 ± 80 nM.

For `CC(C)C(=O)OC[C@H]1O[C@@H](n2ccc(NO)nc2=O)[C@H](O)[C@@H]1O` [Molnupiravir], the EC50 in data set [1] (setting [3]) came out at 1260 ± 230 nM. This molecule also had a CC50 in the data set “in vitro” above 50000 nM.

Consider `CC(C)(C)[C@H](NC(=O)C(F)(F)F)C(=O)N1C[C@H]2[C@@H]([C@H]1C(=O)N[C@H](C#N)C[C@@H]1CCNC1=O)C2(C)C` [Nirmatrelvir], for which the EC50 in data set [1] (setting [3]) is 120 ± 17 nM. The CC50 in “in vitro” was above 50000 nM.

Take `CCC(CC)COC(=O)[C@H](C)N[P@](=O)(OC[C@H]1O[C@@](C#N)(c2ccc3c(N)ncnn23)[C@H](O)[C@@H]1O)Oc1ccccc1` [Remdesivir]: the EC50 in data set [1] (setting [3]) was found to be 40 ± 5 nM. This molecule also returned a CC50 in “in vitro” above 50000 nM.

As a reminder, the EC50 is the concentration giving half of the maximal effect.
